Experimental findings from US11285167B2, “Synergistic nutritional neuroprotective compositions for ameliorating neural dysfunction” (CELAGENEX RESEARCH (INDIA) PVT. LTD., priority 2019, dated 2022) are described below.

Experiment [1] deals with TNF alpha. Nature of the experiment: TNF alpha level in global ischemia reperfusion induced brain injury (cerebral infarction) model. The format is in vivo, Wistar rats. Conditions: global ischemia (30 min)/72 h reperfusion, oral daily for 10 days, mean ± SEM, n = 6.
Experiment [2] concerns Interleukin - 6. Nature of the experiment: Interleukin-6 level in global ischemia reperfusion induced brain injury (cerebral infarction) model. The following applies: global ischemia (30 min)/72 h reperfusion, oral daily for 10 days, mean ± SEM, n = 6. Format: in vivo, Wistar rats.
For experiment [3], the system named is Major depression disorder in Wistar rats. In words: Forced swim test in Reserpine-induced major depression disorder. Format: in vivo. The following applies: for Immobility / mobility in forced swim test (in words): compared to disease control or to individual test substances.
The test system of experiment [4] is Valproic acid-induced autism disorder in albino Wistar rats. In words: Open field test (hyperactivity) in Valproic acid-induced autism disorder. The format is in vivo. The following applies: for No. of squares visited for 6 mins: PND 40, VPA 400 mg/kg, oral daily PND 14 to PND 40, mean ± SEM; for Hyperactive behavior / locomotor activity, open field test (in words): PND 40, compared to Disease control or to Group-3 and Group-4. Here is the method:
The present study was to evaluate the effect of test substances on Valproic acid induced Autism spectrum disorder in wistar rats. The animals (50 animals) were divided into five groups each group consisting of 10 animals (5 animals per sex). Animals in Group-1 were treated with vehicle (0.5% CMC), Group-2 was treated with Valproic acid (VPA) 400 mg/kg via subcutaneous route, Group-3, Group-4 and Group-5 were treated with test substance Agmatine Sulphate (25.83 mg/kg), Nicotinamide Riboside chloride (6.46 mg/kg) and Agmatine Sulphate+Nicotinamide Riboside chloride (25.83 mg/kg+6.46 mg/kg) respectively, according to the body weight of animals. At the end of the experimental period, blood was collected from each group for biochemical analyses. On postnatal day 40 (PND 40), all the animals were exposed to the Morris water maze test and Open field test for specific time periods to determine the autism-like behaviors of the test substances. […] The experiment was performed in 14-day old male and female off springs. The weight of the rat pups on the first day of the experiment was 20-40 grams. Sodium Valproate at dose of 400 mg/kg was freshly prepared and administered via subcutaneous route to the rat pups on postnatal day 14 (PND 14). All the animals were divided into five groups and each group contained the same amount of male and female offspring (5 males and 5 females, per group). Animals in Group-1 served as Normal control and were treated with 0.5% CMC, Group-2 served as Disease control and were treated with VPA (400 mg/kg) via intraperitoneally (i.p.), whereas Group-3 was treated with Test-1 Agmatine Sulphate (25.83 mg/kg), Group-4 was treated with Test-2 Nicotinamide Riboside chloride (6.46 mg/kg) and Group-5 was treated with Test-1+Test-2 Agmatine Sulphate+Nicotinamide Riboside chloride (25.83 mg/kg+6.46 mg/kg). The assigned test substances were administered once daily from PND 14 to PND 40. In addition, behaviors of experimental animals were determined via Morris water maze and open field test. […] The dose volume administered to each rat was 10 ml/kg/day. Similarly, 0.5% CMC for Normal control and Disease control groups was administered orally at the same dose volume for a minimum of 26 consecutive days. The dose volume was calculated for individual animals on the first day of the treatment and was re-calculated according to the recent body weights recorded during the study. Daily individual dose volumes were recorded in the study records. All the animals were exposed to open field tests after the oral treatment with various tests, standard and control treatment in respective groups. The open field apparatus consisted of a wooden field of half square meter with a series of squares alternatively painted in black and white. […] Animals were treated with vehicle and the drug and were placed in the middle of the open field. Then the number of squares visited by the animals was counted for a 6 minute session. The number of entries by respective groups was recorded and used to determine the active time duration of animal post dosing. The determination of the hyperactivity of animals via this test was done on PND 40.

The test system of experiment [5] is Major depression disorder in Wistar rats. In words: Overall behavioral evaluation in major depression disorder study (forced swim and open field tests). Format: in vivo. Conditions: oral 7 consecutive days.
In experiment [6] the test system is Valproic acid-induced autism disorder in albino Wistar rats. In words: Overall autism-like behavior in VPA model of autism disorder. The format is in vivo. Here is the method:
The present study was to evaluate the effect of test substances on Valproic acid induced Autism spectrum disorder in wistar rats. The animals (50 animals) were divided into five groups each group consisting of 10 animals (5 animals per sex). Animals in Group-1 were treated with vehicle (0.5% CMC), Group-2 was treated with Valproic acid (VPA) 400 mg/kg via subcutaneous route, Group-3, Group-4 and Group-5 were treated with test substance Agmatine Sulphate (25.83 mg/kg), Nicotinamide Riboside chloride (6.46 mg/kg) and Agmatine Sulphate+Nicotinamide Riboside chloride (25.83 mg/kg+6.46 mg/kg) respectively, according to the body weight of animals. At the end of the experimental period, blood was collected from each group for biochemical analyses. On postnatal day 40 (PND 40), all the animals were exposed to the Morris water maze test and Open field test for specific time periods to determine the autism-like behaviors of the test substances. […] The experiment was performed in 14-day old male and female off springs. The weight of the rat pups on the first day of the experiment was 20-40 grams. Sodium Valproate at dose of 400 mg/kg was freshly prepared and administered via subcutaneous route to the rat pups on postnatal day 14 (PND 14). […] In addition, behaviors of experimental animals were determined via Morris water maze and open field test. […]

Setting [7] is: forced swim test 5 min, Reserpine 1.0 mg/kg induced, oral daily 7 days, mean ± SEM, n = 6.

SMILES strings stand for the structures.

With `N=C(N)NCCCCN.O=S(=O)(O)O` [Agmatine sulphate], the “TNF alpha Level” value in experiment [1] worked out at 142.00 ± 1.53 pg/mL. Moreover, the “Interleukin - 6 Levels” value in experiment [2] came out at 91.39 ± 0.92 pg/mL. In addition, the “Immobility / mobility in forced swim test (in words)” value in experiment [3] is “mobility of the animals in the treatment groups increased”. In addition, in experiment [3] (setting [7]), the Climbing is 16.50 ± 0.43 and the Immobility was 99.67 ± 0.67. Besides, the “No. of squares visited for 6 mins” value in experiment [4] (Female) is 85.40 ± 1.03. Besides, in experiment [4] (Male), the “No. of squares visited for 6 mins” value is reported as 86.20 ± 2.06. Further, the “Hyperactive behavior / locomotor activity, open field test (in words)” value in experiment [4] was “significantly decreased hyperactive behavior”. Besides, the “Effect on major depression disorder (in words)” value in experiment [5] is listed as “positive effects on major depression disorder”. Further, the “Autism-like behavior (in words)” value in experiment [6] was “improved autism-like behavior”.
On to `NC(=O)c1ccc[n+]([C@@H]2O[C@H](CO)[C@@H](O)[C@H]2O)c1.[Cl-]` [Nicotinamide Riboside chloride, nicotinamide riboside chloride], for which the “TNF alpha Level” value in experiment [1] came to 160.33 ± 4.79 pg/mL. The “Interleukin - 6 Levels” value in experiment [2] was 109.56 ± 0.27 pg/mL. Further, the “Immobility / mobility in forced swim test (in words)” value in experiment [3] was “mobility of the animals in the treatment groups increased”. Also, in experiment [3] (setting [7]), the Climbing is recorded as 15.50 ± 0.62, the Immobility is 105.50 ± 0.85 and the “Total time spent in active swimming” value stood at 185.33 ± 0.67 s. The “No. of squares visited for 6 mins” value in experiment [4] (Female) worked out at 87.20 ± 0.97. The “No. of squares visited for 6 mins” value in experiment [4] (Male) was 88.40 ± 0.98. Moreover, in experiment [4], the “Hyperactive behavior / locomotor activity, open field test (in words)” value is given as “significantly decreased hyperactive behavior”. Moreover, in experiment [5], the “Effect on major depression disorder (in words)” value was “positive effects on major depression disorder”. For the same compound, the “Autism-like behavior (in words)” value in experiment [6] is “improved autism-like behavior”.
